Measured values published in ChEMBL document CHEMBL1201862, “PubChem BioAssay data set” (2004).
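Five compound concentrations were applied to cells in 96-well plates for 48 hours; endpoints were derived by simple linear interpolation of the resulting dose-response curve. Here, GI50 denotes the concentration required for 50% inhibition of growth.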 The source made the active and inactive calls. Rule as the data show it: active = GI50 up to about 1.1 µM and inactive = higher.

Legend:
Assay in all cases: NCI-60 cell line screen, 48 h
[1] = tested on: SW-620
[2] = tested on: CAKI-1
[3] = tested on: HT-29
[4] = tested on: M14
[5] = tested on: EKVX
[6] = tested on: U-251
[7] = tested on: UACC-62
[8] = tested on: SK-MEL-28
[9] = tested on: KM12
[10] = tested on: CCRF-CEM
[11] = tested on: MDA-MB-231
[12] = tested on: HOP-62
[13] = tested on: LOX IMVI
[14] = tested on: SK-OV-3
[15] = tested on: MDA-N
[16] = tested on: K562
[17] = tested on: NCI-H460
[18] = tested on: OVCAR-4
[19] = tested on: OVCAR-5
[20] = tested on: RXF 393
[21] = tested on: Malme-3M
[22] = tested on: RPMI-8226
[23] = tested on: IGROV-1
[24] = tested on: SF-539
[25] = tested on: HL-60
[26] = tested on: NCI-H23
[27] = tested on: SNB-75
[28] = tested on: NCI-H522
[29] = tested on: A549
[30] = tested on: ACHN
[31] = tested on: Hs-578T
[32] = tested on: TK-10
[33] = tested on: T47D
[34] = tested on: UO-31
[35] = tested on: HCC 2998
[36] = tested on: OVCAR-8
[37] = tested on: HCT-15
[38] = tested on: OVCAR-3
[39] = tested on: PC-3
[40] = tested on: MOLT-4
[41] = tested on: COLO 205
[42] = tested on: NCI/ADR-RES
[43] = tested on: NCI-H226
[44] = tested on: SNB-19
[45] = tested on: SK-MEL-2
[46] = tested on: SF-295
[47] = tested on: MDA-MB-435
[48] = tested on: A498
[49] = tested on: SF-268
[50] = tested on: SK-MEL-5
[51] = tested on: SR
[52] = tested on: HCT-116
[53] = tested on: MCF7
[54] = tested on: DU-145
[55] = tested on: HOP-92
[56] = tested on: SN12C
[57] = tested on: 786-0
[58] = tested on: UACC-257

Q: How did the GI50 [1] turn out when c1ccc2c(CCNC3=NCCO3)cccc2c1 was run?
A: > 10 µM (inactive)

Q: And the GI50 [2]?
A: > 10 µM (inactive)

Q: And the GI50 [3]?
A: > 10 µM (inactive)

Q: And the GI50 [4]?
A: > 10 µM (inactive)

Q: And the GI50 [5]?
A: > 10 µM (inactive)

Q: And the GI50 [6]?
A: > 10 µM (inactive)

Q: And the GI50 [7]?
A: > 10 µM (inactive)

Q: And the GI50 [8]?
A: > 10 µM (inactive)

Q: What about the GI50 [9] of the same compound?
A: > 10 µM (inactive)

Q: And the GI50 [10]?
A: > 10 µM (inactive)

Q: And the GI50 [11]?
A: > 10 µM (inactive)

Q: What about the GI50 [12] of the same compound?
A: > 10 µM (inactive)

Q: And the GI50 [13]?
A: > 10 µM (inactive)

Q: And the GI50 [14]?
A: > 10 µM (inactive)

Q: And the GI50 [15]?
A: > 10 µM (inactive)

Q: And the GI50 [16]?
A: > 10 µM (inactive)

Q: And the GI50 [17]?
A: > 10 µM (inactive)

Q: And the GI50 [18]?
A: > 10 µM (inactive)

Q: What about the GI50 [19] of the same compound?
A: > 10 µM (inactive)

Q: And the GI50 [20]?
A: > 10 µM (inactive)

Q: And the GI50 [21]?
A: > 10 µM (inactive)

Q: What about the GI50 [22] of the same compound?
A: > 10 µM (inactive)

Q: And the GI50 [23]?
A: > 10 µM (inactive)

Q: What about the GI50 [24] of the same compound?
A: > 10 µM (inactive)

Q: What about the GI50 [25] of the same compound?
A: > 10 µM (inactive)

Q: What about the GI50 [26] of the same compound?
A: > 10 µM (inactive)

Q: And the GI50 [27]?
A: > 10 µM (inactive)

Q: And the GI50 [28]?
A: > 10 µM (inactive)

Q: What about the GI50 [29] of the same compound?
A: > 10 µM (inactive)

Q: What about the GI50 [30] of the same compound?
A: > 10 µM (inactive)

Q: What about the GI50 [31] of the same compound?
A: > 10 µM (inactive)

Q: And the GI50 [32]?
A: > 10 µM (inactive)

Q: And the GI50 [33]?
A: > 10 µM (inactive)

Q: What about the GI50 [34] of the same compound?
A: 4.26 µM (inactive)

Q: And the GI50 [35]?
A: > 10 µM (inactive)

Q: And the GI50 [36]?
A: > 10 µM (inactive)

Q: And the GI50 [37]?
A: > 10 µM

Q: And the GI50 [38]?
A: > 10 µM (inactive)

Q: What about the GI50 [39] of the same compound?
A: > 10 µM (inactive)

Q: And the GI50 [40]?
A: > 10 µM (inactive)

Q: What about the GI50 [41] of the same compound?
A: > 10 µM (inactive)

Q: And the GI50 [42]?
A: > 10 µM (inactive)

Q: And the GI50 [43]?
A: > 10 µM (inactive)

Q: What about the GI50 [44] of the same compound?
A: > 10 µM (inactive)

Q: What about the GI50 [45] of the same compound?
A: > 10 µM (inactive)

Q: And the GI50 [46]?
A: > 10 µM (inactive)

Q: What about the GI50 [47] of the same compound?
A: > 10 µM (inactive)

Q: And the GI50 [48]?
A: > 10 µM (inactive)

Q: What about the GI50 [49] of the same compound?
A: > 10 µM (inactive)

Q: And the GI50 [50]?
A: > 10 µM (inactive)

Q: What about the GI50 [51] of the same compound?
A: > 10 µM (inactive)

Q: What about the GI50 [52] of the same compound?
A: > 10 µM (inactive)

Q: What about the GI50 [53] of the same compound?
A: > 10 µM (inactive)

Q: And the GI50 [54]?
A: > 10 µM (inactive)

Q: What does the source list for CN(C)CCCNc1ccc2c(=O)n(CCN(C)C)c(=O)n3c4ccccc4c(=O)c1c23?
A: GI50 [1]: 0.0637 µM (active); GI50 [2]: 0.211 µM (active); GI50 [3]: 0.0647 µM (active); GI50 [4]: 0.394 µM (active); GI50 [5]: 0.272 µM (active); GI50 [6]: 0.234 µM (active); GI50 [55]: 0.664 µM (active); GI50 [7]: 0.342 µM (active); GI50 [8]: 0.628 µM (active); GI50 [9]: 0.159 µM (active); GI50 [10]: 0.132 µM (active); GI50 [11]: 0.164 µM (active); GI50 [12]: 0.351 µM (active); GI50 [13]: 0.144 µM (active); GI50 [14]: 0.582 µM (active); GI50 [15]: 0.133 µM (active); GI50 [16]: 0.0512 µM (active); GI50 [17]: 0.0335 µM (active); GI50 [18]: 0.224 µM (active); GI50 [19]: 0.356 µM (active); GI50 [56]: 0.103 µM (active); GI50 [20]: 0.783 µM (active); GI50 [21]: 0.286 µM (active); GI50 [57]: 0.0419 µM (active); GI50 [22]: 0.129 µM (active); GI50 [23]: 0.148 µM (active); GI50 [24]: 0.486 µM (active); GI50 [25]: 0.15 µM (active); GI50 [26]: 0.236 µM (active); GI50 [27]: 1.1 µM (active); GI50 [28]: 0.101 µM (active); GI50 [29]: 0.155 µM (active); GI50 [30]: 0.0752 µM (active); GI50 [31]: 1.49 µM (inactive); GI50 [32]: 0.518 µM (active); GI50 [33]: 1.03 µM (active); GI50 [34]: 0.355 µM (active); GI50 [58]: 0.396 µM (active); GI50 [35]: 0.112 µM (active); GI50 [36]: 0.22 µM (active); GI50 [37]: 0.0562 µM; GI50 [38]: 0.34 µM (active); GI50 [39]: 0.258 µM (active); GI50 [40]: 0.0268 µM (active); GI50 [41]: 0.127 µM (active); GI50 [42]: 0.396 µM (active); GI50 [43]: 0.368 µM (active); GI50 [44]: 0.132 µM (active); GI50 [45]: 0.798 µM (active); GI50 [46]: 0.245 µM (active); GI50 [47]: 0.259 µM (active); GI50 [48]: 0.309 µM (active); GI50 [49]: 0.603 µM (active); GI50 [50]: 0.35 µM (active); GI50 [51]: 0.022 µM (active); GI50 [52]: 0.0752 µM (active); GI50 [53]: 0.0885 µM (active); GI50 [54]: 0.124 µM (active)
